# Measured values published in ChEMBL document CHEMBL5131474, “Resveratrol inhibited hepatocyte apoptosis and alleviated liver fibrosis through miR-190a-5p /HGF axis” (2022).
# Active and inactive are the calls of the source. No cut-off for these calls is given here.
# How the values were obtained:
# Hepatocyte [1] = assay: Inhibition of TGF-beta1 induced apoptosis in C57/B6J mouse primary hepatocytes assessed as live cells at 10 uM in presence of miR-190a-5p inhibitor by Annexin-V-FITC-H and PI staining based flow cytometry analysis (reference value: 61.65 %); assay type: functional; set-up: scale not given: the % may be the effect or the level left
# Hepatocyte [2] = assay: Inhibition of TGF-beta1 induced apoptosis in C57/B6J mouse primary hepatocytes assessed as early apoptotic cells at 10 uM in presence of miR-190a-5p inhibitor by Annexin-V-FITC-H and PI staining based flow cytometry analysis (reference value: 18.90 %); assay type: functional; set-up: scale not given: the % may be the effect or the level left
# Hepatocyte [3] = assay: Inhibition of TGF-beta1 induced apoptosis in C57/B6J mouse primary hepatocytes assessed as late apoptotic cells at 10 uM in presence of miR-190a-5p inhibitor by Annexin-V-FITC-H and PI staining based flow cytometry analysis (reference value: 13.96 %); assay type: functional; set-up: scale not given: the % may be the effect or the level left
# Hepatocyte [4] = assay: Inhibition of TGF-beta1 induced apoptosis in C57/B6J mouse primary hepatocytes assessed as dead cells at 10 uM in presence of miR-190a-5p inhibitor by Annexin-V-FITC-H and PI staining based flow cytometry analysis (reference value: 5.49 %); assay type: functional; set-up: scale not given: the % may be the effect or the level left
# Hepatocyte [5] = assay: Induction of apoptosis in TGF-beta1-stimulated C57/B6J mouse primary hepatocytes assessed as reversal of miR-190a-5p inhibitor induced increase in Bcl-2 expression at 10 uM by Western blot analysis; assay type: functional, cell-based
# Hepatocyte [6] = assay: Induction of apoptosis in TGF-beta1-stimulated C57/B6J mouse primary hepatocytes assessed as reversal of miR-190a-5p inhibitor induced decrease in cleaved-caspase 3 expression at 10 uM by Western blot analysis; assay type: functional, cell-based
# Hepatocyte [7] = assay: Downregulation of TGF-beta1 and miR-190a-5p inhibitor induced HGF mRNA expression in C57/B6J mouse primary hepatocytes at 10 uM by qRT-PCR analysis; assay type: functional, cell-based
# Hepatocyte [8] = assay: Downregulation of TGF-beta1 and miR-190a-5p inhibitor induced HGF protein expression C57/B6J mouse primary hepatocytes at 10 uM by Western blot analysis; assay type: functional, cell-based
# Hepatocyte [9] = assay: Inhibition of TGF-beta1 induced apoptosis in C57/B6J mouse primary hepatocytes assessed as live cells by Annexin-V-FITC-H and PI staining based flow cytometry analysis (reference value: 64.40 %); assay type: functional; set-up: scale not given: the % may be the effect or the level left
# Hepatocyte [10] = assay: Downregulation of miR-190a-5p expression in TGF-beta induced C57/B6J mouse primary hepatocytes at 10 to 50 uM incubated for 4 hrs by qRT-PCR analysis; assay type: functional, cell-based; settings: dose 10-50 µM
# HepG2 = assay: Downregulation of miR-190a-5p expression in TGF-beta induced human HepG2 cells at 10 to 50 uM incubated for 4 hrs by qRT-PCR analysis; assay type: functional, cell-based; settings: dose 10-50 µM
# Hepatocyte [11] = assay: Inhibition of TGF-beta1 induced apoptosis in C57/B6J mouse primary hepatocytes assessed as live cells at 10 uM by Annexin-V-FITC-H and PI staining based flow cytometry analysis (reference value: 66.08 %); assay type: functional; set-up: scale not given: the % may be the effect or the level left
# Hepatocyte [12] = assay: Inhibition of TGF-beta1 induced apoptosis in C57/B6J mouse primary hepatocytes assessed as early apoptotic cells at 10 uM by Annexin-V-FITC-H and PI staining based flow cytometry analysis (reference value: 18.71 %); assay type: functional; set-up: scale not given: the % may be the effect or the level left
# Hepatocyte [13] = assay: Inhibition of TGF-beta1 induced apoptosis in C57/B6J mouse primary hepatocytes assessed as late apoptotic cells at 10 uM by Annexin-V-FITC-H and PI staining based flow cytometry analysis (reference value: 12.12 %); assay type: functional; set-up: scale not given: the % may be the effect or the level left
# Hepatocyte [14] = assay: Inhibition of TGF-beta1 induced apoptosis in C57/B6J mouse primary hepatocytes assessed as dead cells at 10 uM by Annexin-V-FITC-H and PI staining based flow cytometry analysis (reference value: 3.09 %); assay type: functional; set-up: scale not given: the % may be the effect or the level left
# Hepatocyte [15] = assay: Inhibition of TGF-beta1 induced apoptosis in C57/B6J mouse primary hepatocytes assessed as live cells at 25 uM by Annexin-V-FITC-H and PI staining based flow cytometry analysis (reference value: 66.08 %); assay type: functional; set-up: scale not given: the % may be the effect or the level left
# Hepatocyte [16] = assay: Inhibition of TGF-beta1 induced apoptosis in C57/B6J mouse primary hepatocytes assessed as early apoptotic cells at 25 uM by Annexin-V-FITC-H and PI staining based flow cytometry analysis (reference value: 18.71 %); assay type: functional; set-up: scale not given: the % may be the effect or the level left
# Hepatocyte [17] = assay: Inhibition of TGF-beta1 induced apoptosis in C57/B6J mouse primary hepatocytes assessed as late apoptotic cells at 25 uM by Annexin-V-FITC-H and PI staining based flow cytometry analysis (reference value: 12.12 %); assay type: functional; set-up: scale not given: the % may be the effect or the level left
# Hepatocyte [18] = assay: Inhibition of TGF-beta1 induced apoptosis in C57/B6J mouse primary hepatocytes assessed as dead cells at 25 uM by Annexin-V-FITC-H and PI staining based flow cytometry analysis (reference value: 3.09 %); assay type: functional; set-up: scale not given: the % may be the effect or the level left
# Hepatocyte [19] = assay: Inhibition of TGF-beta1 induced apoptosis in C57/B6J mouse primary hepatocytes assessed as live cells at 50 uM by Annexin-V-FITC-H and PI staining based flow cytometry analysis (reference value: 66.08 %); assay type: functional; set-up: scale not given: the % may be the effect or the level left
# Hepatocyte [20] = assay: Inhibition of TGF-beta1 induced apoptosis in C57/B6J mouse primary hepatocytes assessed as early apoptotic cells at 50 uM by Annexin-V-FITC-H and PI staining based flow cytometry analysis (reference value: 18.71 %); assay type: functional; set-up: scale not given: the % may be the effect or the level left
# Hepatocyte [21] = assay: Inhibition of TGF-beta1 induced apoptosis in C57/B6J mouse primary hepatocytes assessed as late apoptotic cells at 50 uM by Annexin-V-FITC-H and PI staining based flow cytometry analysis (reference value: 12.12 %); assay type: functional; set-up: scale not given: the % may be the effect or the level left
# Hepatocyte [22] = assay: Inhibition of TGF-beta1 induced apoptosis in C57/B6J mouse primary hepatocytes assessed as dead cells at 50 uM by Annexin-V-FITC-H and PI staining based flow cytometry analysis (reference value: 3.09 %); assay type: functional; set-up: scale not given: the % may be the effect or the level left
# Hepatocyte [23] = assay: Inhibition of TGF-beta1 induced apoptosis in C57/B6J mouse primary hepatocytes assessed as increase in Bcl-2 expression at 10 to 50 uM by Western blot analysis; assay type: functional, cell-based; settings: dose 10-50 µM
# Hepatocyte [24] = assay: Inhibition of TGF-beta1 induced apoptosis in C57/B6J mouse primary hepatocytes assessed as decrease in cleaved-caspase-3 expression at 10 to 50 uM by Western blot analysis; assay type: functional, cell-based; settings: dose 10-50 µM
# Hepatocyte [25] = assay: Inhibition of TGF-beta1 induced apoptosis in C57/B6J mouse primary hepatocytes assessed as early apoptotic cells by Annexin-V-FITC-H and PI staining based flow cytometry analysis (reference value: 19.89 %); assay type: functional; set-up: scale not given: the % may be the effect or the level left
# Hepatocyte [26] = assay: Inhibition of TGF-beta1 induced apoptosis in C57/B6J mouse primary hepatocytes assessed as late apoptotic cells by Annexin-V-FITC-H and PI staining based flow cytometry analysis (reference value: 12.03 %); assay type: functional; set-up: scale not given: the % may be the effect or the level left
# Hepatocyte [27] = assay: Inhibition of TGF-beta1 induced apoptosis in C57/B6J mouse primary hepatocytes assessed as dead cells by Annexin-V-FITC-H and PI staining based flow cytometry analysis (reference value: 3.68 %); assay type: functional; set-up: scale not given: the % may be the effect or the level left
# Hepatocyte [28] = assay: Inhibition of TGF-beta1 induced apoptosis in C57/B6J mouse primary hepatocytes assessed as live cells in presence of miR-190a-5p mimic by Annexin-V-FITC-H and PI staining based flow cytometry analysis (reference value: 64.40 %); assay type: functional; set-up: scale not given: the % may be the effect or the level left
# Hepatocyte [29] = assay: Inhibition of TGF-beta1 induced apoptosis in C57/B6J mouse primary hepatocytes assessed as early apoptotic cells in presence of miR-190a-5p mimic by Annexin-V-FITC-H and PI staining based flow cytometry analysis (reference value: 19.89 %); assay type: functional; set-up: scale not given: the % may be the effect or the level left
# Hepatocyte [30] = assay: Inhibition of TGF-beta1 induced apoptosis in C57/B6J mouse primary hepatocytes assessed as late apoptotic cells in presence of miR-190a-5p mimic by Annexin-V-FITC-H and PI staining based flow cytometry analysis (reference value: 12.03 %); assay type: functional; set-up: scale not given: the % may be the effect or the level left
# Hepatocyte [31] = assay: Inhibition of TGF-beta1 induced apoptosis in C57/B6J mouse primary hepatocytes assessed as dead cells in presence of miR-190a-5p mimic by Annexin-V-FITC-H and PI staining based flow cytometry analysis (reference value: 3.68 %); assay type: functional; set-up: scale not given: the % may be the effect or the level left
# Mus musculus [32] = assay: Antifibrotic activity in CCL-4 induced liver fibrosis C57/B6J mouse model assessed as reduction in disorganized and interlaced fibers at 100 mg/kg/day, ip measured after 72 hrs post last dose by HE/Sirus red/TUNEL staining based analysis; assay type: functional, organism-based
# Mus musculus [33] = assay: Inhibition of apoptosis in CCL-4 induced liver fibrosis C57/B6J mouse model at 100 mg/kg/day, ip measured after 72 hrs post last dose; assay type: functional, organism-based
# Mus musculus [34] = assay: Antifibrotic activity in CCL-4 induced liver fibrosis C57/B6J mouse model assessed as reduction in hydroxyproline level in liver at 100 mg/kg/day, ip measured after 72 hrs post last dose; assay type: functional, organism-based
# Mus musculus [35] = assay: Antifibrotic activity in CCL-4 induced liver fibrosis C57/B6J mouse model assessed as reduction in COL1A1 mRNA expression at 100 mg/kg/day, ip measured after 72 hrs post last dose by qRT-PCR analysis; assay type: functional, organism-based
# Mus musculus [36] = assay: Antifibrotic activity in CCL-4 induced liver fibrosis C57/B6J mouse model assessed as increase in HGF expression at 100 mg/kg/day, ip measured after 72 hrs post last dose by Western blot analysis; assay type: functional, organism-based
# Mus musculus [37] = assay: Antifibrotic activity in CCL-4 induced liver fibrosis C57/B6J mouse model assessed as reduction in miR-190a-5p expression in liver at 100 mg/kg/day, ip measured after 72 hrs post last dose by qRT-PCR analysis; assay type: functional, organism-based
# Mus musculus [38] = assay: Antifibrotic activity in CCL-4 induced liver fibrosis C57/B6J mouse model assessed as reduction in serum AST level at 100 mg/kg/day, ip measured after 72 hrs post last dose by ELISA; assay type: functional, organism-based
# Mus musculus [39] = assay: Antifibrotic activity in CCL-4 induced liver fibrosis C57/B6J mouse model assessed as reduction in serum ALT level at 100 mg/kg/day, ip measured after 72 hrs post last dose by ELISA; assay type: functional, organism-based
# Mus musculus [40] = assay: Antifibrotic activity in CCL-4 induced liver fibrosis C57/B6J mouse model assessed as increase in albumin level in serum at 100 mg/kg/day, ip measured after 72 hrs post last dose by ELISA; assay type: functional, organism-based
smiles,measurement,setting,value
CC1CN(CC2CCN(Cc3ccccc3)CC2)C(=O)N(c2cccc(C(=N)N)c2)C1.O=C(O)C(F)(F)F (stereo unspecified),Activity,Hepatocyte [1],64.46%
same,Activity,Hepatocyte [2],18.6%
same,Activity,Hepatocyte [3],13.59%
same,Activity,Hepatocyte [4],3.35%
same,Activity,Hepatocyte [5],Active
same,Activity,Hepatocyte [6],Active
same,Activity,Hepatocyte [7],Active
same,Activity,Hepatocyte [8],Active
Oc1ccc(/C=C/c2cc(O)cc(O)c2)cc1 [RESVERATROL],Activity,Hepatocyte [9],83.06%
same,Activity,Hepatocyte [10],Active
same,Activity,HepG2,Active
same,Activity,Hepatocyte [11],69.83%
same,Activity,Hepatocyte [12],16.37%
same,Activity,Hepatocyte [13],11.36%
same,Activity,Hepatocyte [14],2.44%
same,Activity,Hepatocyte [15],75.96%
same,Activity,Hepatocyte [16],12.59%
same,Activity,Hepatocyte [17],9.96%
same,Activity,Hepatocyte [18],1.49%
same,Activity,Hepatocyte [19],84.53%
same,Activity,Hepatocyte [20],7.99%
same,Activity,Hepatocyte [21],6.54%
same,Activity,Hepatocyte [22],0.95%
same,inhibition,Hepatocyte [23],Active
same,inhibition,Hepatocyte [24],Active
same,Activity,Hepatocyte [25],10.05%
same,Activity,Hepatocyte [26],5.25%
same,Activity,Hepatocyte [27],0.64%
same,Activity,Hepatocyte [28],70.1%
same,Activity,Hepatocyte [29],17.41%
same,Activity,Hepatocyte [30],11.38%
same,Activity,Hepatocyte [31],1.12%
same,Activity,Mus musculus [32],Active
same,inhibition,Mus musculus [33],Active
same,Activity,Mus musculus [34],Active
same,Activity,Mus musculus [35],Active
same,Activity,Mus musculus [36],Active
same,Activity,Mus musculus [37],Active
same,Activity,Mus musculus [38],Active
same,Activity,Mus musculus [39],Active
same,Activity,Mus musculus [40],Active
